Here are results for seven molecules from US20230398130A1, “METHODS AND COMPOSITIONS FOR DIFFERENTIATING STEM CELLS” (Massachusetts Institute of Technology, priority 2020, published 2023).

The subject of assay [1] is ISC-enriched organoids. Put plainly: Secondary (validation) screen, 384-well 2.5-D, ENR+CD 6 days, n=8 wells, vs ENR+CD+DMSO control: carbachol-induced lysozyme secretion (LYZ.S). The assay is classed as cell-based, murine. Here is the method:
(§1) Drugs were tested at a narrowed dose range around each treatment's identified optimal dose from the primary screen (4× below, 2× above and below).
(§2) High-throughput screening.
(§3) Secondary lysozyme secretion assay screen. Confirmatory secondary screening with primary hits was performed using the above 384-well plate method. The screen was conducted with 4-plate replicates with a base media of ENR+CD. Media was supplemented with compound at day 0 and day 3 (n=8 well replicates per dose) at four different doses: two-fold above, two-fold below, and four-fold below the optimal final dose for each respective treatment. Additionally, each plate carried a large number of ENR+DMSO or ENR+CD+DMSO (vehicle) control wells (n=100 for ATP, and n=25 for LYZ.NS and LYZ.S) for robust normalization. ATP, non-stimulated lysozyme activity and CCh-stimulated lysozyme activity was again measured and the collected data was again processed in a custom R-script, per primary screen with slight modification. Values were log10 transformed, and a plate-wise FC was calculated for each well based on the median value of ENR+CD+DMSO (vehicle) control wells to normalize plate to plate variability.

For assay [2], the system named is ISC-enriched organoids. Description: Secondary (validation) screen, 384-well 2.5-D, ENR+CD 6 days, n=8 wells, vs ENR+CD+DMSO control: basal lysozyme secretion (LYZ.NS). The assay is classed as cell-based, murine. As to the method:
as §1, §2, §3

The subject of assay [3] is ISC-enriched organoids. Put plainly: Secondary (validation) screen, 384-well 2.5-D, ENR+CD 6 days, n=8 wells, vs ENR+CD+DMSO control: ATP (CTG). The assay is classed as cell-based, murine. Here is the method:
as §1, §2, §3

Assay [4] relates to ISC-enriched organoids. Put plainly: Primary screen, 384-well 2.5-D organoid differentiation (ENR+CD, 6 days): basal lysozyme secretion (LYZ.NS). The assay is classed as cell-based, murine. The conditions noted are these: for Dose.FC.LYZ.NS: FC vs plate median; for Z.LYZ.NS: standard z score of FC; for Dose.FC.LYZ.NS (log 2 fold change) / Dose.FC.LYZ.NS (log 2 fold change, basal lysozyme secretion): vs plate median.
Text: as §2

The subject of assay [5] is ISC-enriched organoids. Put plainly: Primary screen, 384-well 2.5-D organoid differentiation (ENR+CD, 6 days): carbachol-induced lysozyme secretion (LYZ.S). The conditions noted are these: for Dose.FC.LYZ.S / Dose.FC.LYZ.S (log 2 fold change): primary screen; for Dose.FC.LYZ.S: FC vs plate median; for Dose.FC.LYZ.S (log 2 fold change) / Dose.FC.LYZ.S (log 2 fold change, carbachol-induced lysozyme secretion): vs plate median. The assay is classed as cell-based, murine.
Text: as §2

In assay [6] the test system is ISC-enriched organoids. Description: Primary screen, 384-well 2.5-D organoid differentiation (ENR+CD, 6 days, Target Selective Inhibitor Library, vs whole-plate median): ATP (CellTiter-Glo 3D, CTG). The conditions noted are these: for Dose.FC.CTG: FC vs plate median; for Z.CTG: standard z score of FC; for Dose.FC.CTG (log 2 fold change) / Dose.FC.CTG (log 2 fold change, ATP): vs plate median.

On to `CCc1c(C(=O)C(N)=O)c2c(OCC(=O)O)cccc2n1Cc1ccccc1` [Varespladib (LY315920), Varespladib], for which the Z.LYZ.S in assay [1] (Dose 0.02 uM) is −1.057; in assay [1] (Dose 0.04 uM), −0.339; in assay [1] (dose 0.08 uM), 0.497. Besides, the results for the repSSMD.LYZ.S in assay [1] (Dose 0.02 uM), in assay [1] (Dose 0.04 uM) and in assay [1] (dose 0.08 uM) were −1.652, −0.641 and 0.838, respectively. The Z.LYZ.NS in assay [2] (Dose 0.02 uM) is −0.723; in assay [2] (Dose 0.04 uM) it was 0.123; in assay [2] (dose 0.08 uM) it was 0.718. The repSSMD.LYZ.NS in assay [2] (Dose 0.02 uM) is reported as −0.763; in assay [2] (Dose 0.04 uM), 0.213; in assay [2] (dose 0.08 uM) it was 1.251. The figures for the Z.CTG in assay [3] (Dose 0.02 uM), in assay [3] (Dose 0.04 uM) and in assay [3] (dose 0.08 uM) were 0.244, 1.019 and 1.862, respectively. Moreover, the repSSMD.CTG in assay [3] (Dose 0.02 uM) is on record as 0.187; in assay [3] (Dose 0.04 uM), 0.518; in assay [3] (dose 0.08 uM) it was 1.114.
For OG-L002, the Dose.FC.LYZ.NS in assay [4] (Dose 0.08 uM, primary screen) is reported as 0.000 log 2 fold change; in assay [4] (Dose 0.40 uM, primary screen), −0.011 log 2 fold change; in assay [4] (Dose 2.00 uM, primary screen) it was 0.021 log 2 fold change; in assay [4] (Dose 10.00 uM, primary screen) it was −0.091 log 2 fold change. For the same molecule, the Z.LYZ.NS in assay [4] (Dose 0.08 uM) is reported as −0.001; in assay [4] (Dose 0.40 uM), −0.097; in assay [4] (Dose 2.00 uM), 0.182; in assay [4] (Dose 10.00 uM), −0.790. The Dose.FC.LYZ.S in assay [5] (Dose 0.08 uM) is given as 0.023 log 2 fold change; in assay [5] (Dose 0.40 uM), 0.026 log 2 fold change; in assay [5] (Dose 2.00 uM) it was −0.001 log 2 fold change; in assay [5] (Dose 10.00 uM), −0.084 log 2 fold change. Further, the Dose.FC.CTG in assay [6] (Dose 0.08 uM, primary screen) is listed as 0.094 log 2 fold change; in assay [6] (Dose 0.40 uM, primary screen) it was 0.138 log 2 fold change; in assay [6] (Dose 2.00 uM, primary screen), 0.128 log 2 fold change; in assay [6] (Dose 10.00 uM, primary screen) it was 0.094 log 2 fold change. Moreover, the Z.CTG in assay [6] (Dose 0.08 uM) came to 0.225; in assay [6] (Dose 0.40 uM) it was 0.329; in assay [6] (Dose 2.00 uM), 0.306; in assay [6] (Dose 10.00 uM) it was 0.225.
As for S3I-201, the “Z.LYZ.NS (standard z score)” value is 0.445 in assay [4] (Dose 0.08 uM, primary screen); 0.527 in assay [4] (Dose 0.40 uM, primary screen); 0.212 in assay [4] (Dose 2.00 uM, primary screen); −0.143 in assay [4] (Dose 10.00 uM, primary screen). The “Dose.FC.LYZ.NS (log 2 fold change)” value is 0.051 in assay [4] (Dose 0.08 uM, primary screen); 0.061 in assay [4] (Dose 0.40 uM, primary screen); 0.024 in assay [4] (Dose 2.00 uM, primary screen); −0.016 in assay [4] (Dose 10.00 uM, primary screen). The “Dose.FC.LYZ.S (log 2 fold change)” value was 0.033 in assay [5] (Dose 0.08 uM), 0.157 in assay [5] (Dose 0.40 uM), −0.004 in assay [5] (Dose 2.00 uM) and −0.052 in assay [5] (Dose 10.00 uM). In addition, the “Z.CTG (standard z score)” value in assay [6] (Dose 0.08 uM, primary screen) is listed as 0.766; in assay [6] (Dose 0.40 uM, primary screen), 0.382; in assay [6] (Dose 2.00 uM, primary screen), 0.188; in assay [6] (Dose 10.00 uM, primary screen), −0.334. The “Dose.FC.CTG (log 2 fold change)” value in assay [6] (Dose 0.08 uM, primary screen) was 0.321; in assay [6] (Dose 0.40 uM, primary screen) it was 0.160; in assay [6] (Dose 2.00 uM, primary screen), 0.079; in assay [6] (Dose 10.00 uM, primary screen), −0.140.
On to SN-38, for which the “Z.LYZ.NS (standard z score)” value in assay [4] (Dose 0.08 uM, primary screen) is −2.391; in assay [4] (Dose 0.40 uM, primary screen), −2.505; in assay [4] (Dose 2.00 uM, primary screen) it was −2.655; in assay [4] (Dose 10.00 uM, primary screen), −2.606. Moreover, the “Dose.FC.LYZ.NS (log 2 fold change)” value was −0.275 in assay [4] (Dose 0.08 uM, primary screen); −0.288 in assay [4] (Dose 0.40 uM, primary screen); −0.305 in assay [4] (Dose 2.00 uM, primary screen); −0.299 in assay [4] (Dose 10.00 uM, primary screen). For the same molecule, the “Dose.FC.LYZ.S (log 2 fold change)” value in assay [5] (Dose 0.08 uM) is −0.419; in assay [5] (Dose 0.40 uM), −0.402; in assay [5] (Dose 2.00 uM), −0.391; in assay [5] (Dose 10.00 uM), −0.404. For the same molecule, the “Z.CTG (standard z score)” value in assay [6] (Dose 0.08 uM, primary screen) was −1.720; in assay [6] (Dose 0.40 uM, primary screen), −2.606; in assay [6] (Dose 2.00 uM, primary screen) it was −2.929; in assay [6] (Dose 10.00 uM, primary screen), −2.785. For the same molecule, the “Dose.FC.CTG (log 2 fold change)” value in assay [6] (Dose 0.08 uM, primary screen) was −0.720; in assay [6] (Dose 0.40 uM, primary screen), −1.091; in assay [6] (Dose 2.00 uM, primary screen) it was −1.226; in assay [6] (Dose 10.00 uM, primary screen), −1.166.
As for SNS-314 Mesylate, the “Z.LYZ.NS (standard z score)” value in assay [4] (Dose 0.08 uM, primary screen) is reported as −0.620; in assay [4] (Dose 0.40 uM, primary screen), −0.515; in assay [4] (Dose 2.00 uM, primary screen) it was −1.111; in assay [4] (Dose 10.00 uM, primary screen), −1.109. For the same molecule, the “Dose.FC.LYZ.NS (log 2 fold change)” value in assay [4] (Dose 0.08 uM, primary screen) is recorded as −0.071; in assay [4] (Dose 0.40 uM, primary screen), −0.059; in assay [4] (Dose 2.00 uM, primary screen), −0.128; in assay [4] (Dose 10.00 uM, primary screen) it was −0.127. For the same molecule, the “Dose.FC.LYZ.S (log 2 fold change)” value in assay [5] (Dose 0.08 uM) was −0.115; in assay [5] (Dose 0.40 uM) it was −0.103; in assay [5] (Dose 2.00 uM), −0.133; in assay [5] (Dose 10.00 uM), −0.198. The “Z.CTG (standard z score)” value was −1.591 in assay [6] (Dose 0.08 uM, primary screen); −1.857 in assay [6] (Dose 0.40 uM, primary screen); −1.142 in assay [6] (Dose 2.00 uM, primary screen); −1.480 in assay [6] (Dose 10.00 uM, primary screen). In addition, the “Dose.FC.CTG (log 2 fold change)” value is −0.666 in assay [6] (Dose 0.08 uM, primary screen); −0.777 in assay [6] (Dose 0.40 uM, primary screen); −0.478 in assay [6] (Dose 2.00 uM, primary screen); −0.620 in assay [6] (Dose 10.00 uM, primary screen).
VU 0364439: the “Z.LYZ.NS (standard z score)” value in assay [4] (dose 0.08 uM) was 0.715; in assay [4] (dose 0.40 uM), 0.099; in assay [4] (dose 2.00 uM), 0.089; in assay [4] (dose 10.00 uM) it was −0.476. The “Dose.FC.LYZ.NS (log 2 fold change, basal lysozyme secretion)” value in assay [4] (dose 0.08 uM) was 0.082; in assay [4] (dose 0.40 uM), 0.011; in assay [4] (dose 2.00 uM), 0.010; in assay [4] (dose 10.00 uM), −0.055. The “Dose.FC.LYZ.S (log 2 fold change, carbachol-induced lysozyme secretion)” value is reported as 0.108 in assay [5] (dose 0.08 uM), 0.124 in assay [5] (dose 0.40 uM), −0.043 in assay [5] (dose 2.00 uM) and −0.038 in assay [5] (dose 10.00 uM). Moreover, the “Z.CTG (standard z score)” value is 0.058 in assay [6] (dose 0.08 uM), −0.289 in assay [6] (dose 0.40 uM), −0.616 in assay [6] (dose 2.00 uM) and 0.022 in assay [6] (dose 10.00 uM). Further, the “Dose.FC.CTG (log 2 fold change, ATP)” value in assay [6] (dose 0.08 uM) was 0.024; in assay [6] (dose 0.40 uM) it was −0.121; in assay [6] (dose 2.00 uM) it was −0.258; in assay [6] (dose 10.00 uM), 0.009.
As to VU 0364770, the “Z.LYZ.NS (standard z score)” value in assay [4] (dose 0.08 uM) is reported as 1.350; in assay [4] (dose 0.40 uM), 0.736; in assay [4] (dose 2.00 uM), 1.020; in assay [4] (dose 10.00 uM), 0.884. Also, the “Dose.FC.LYZ.NS (log 2 fold change, basal lysozyme secretion)” value in assay [4] (dose 0.08 uM) is reported as 0.155; in assay [4] (dose 0.40 uM), 0.085; in assay [4] (dose 2.00 uM), 0.117; in assay [4] (dose 10.00 uM) it was 0.102. For the same molecule, the “Dose.FC.LYZ.S (log 2 fold change, carbachol-induced lysozyme secretion)” value in assay [5] (dose 0.08 uM) was determined as 0.082; in assay [5] (dose 0.40 uM), 0.125; in assay [5] (dose 2.00 uM), 0.139; in assay [5] (dose 10.00 uM) it was 0.066. Moreover, the “Z.CTG (standard z score)” value was 0.031 in assay [6] (dose 0.08 uM), 0.204 in assay [6] (dose 0.40 uM), 0.199 in assay [6] (dose 2.00 uM) and −0.246 in assay [6] (dose 10.00 uM). Moreover, the “Dose.FC.CTG (log 2 fold change, ATP)” value in assay [6] (dose 0.08 uM) is given as 0.013; in assay [6] (dose 0.40 uM) it was 0.085; in assay [6] (dose 2.00 uM), 0.083; in assay [6] (dose 10.00 uM), −0.103.
